# Source: paper PMC6207618, “The GbsR Family of Transcriptional Regulators: Functional Characterization of the OpuAR Repressor” (Frontiers in Microbiology, 2018)
# Entries after “also recorded” stand apart in the source; their conditions may differ.
# Tested on: opuAA-treA reporter activity
# Experiment: opuAA-treA reporter fusion TreA enzyme activity assay
# Assay type: cell-based, Bacillus subtilis
# Settings: strain STHB10 (OpuAR+), SMM with 1.2 M NaCl, 1 mM compatible solute
# Text: opuAAB.infantis′-treA reporter gene fusions were constructed using primers opuAR treA Frag1/2 rev and either opuAR treA Frag1/4 for (Supplementary Table S2) to amplify a 1940-bp DNA fragment from chromosomal DNA of B. infantis NRRL B-14911, including the predicted opuA promoter region and the coding region of opuAR, or primer opuAR treA Frag2 for, to generate a fragment lacking the opuAR gene. PCR products, which had been cut with BamHI and SmaI, were cloned into the vector pJMB1 ([Hoffmann et al., 2013]). This vector carries a promoterless treA gene, whose gene product [phospho-α-(1,1)-glucosidase] can be assayed and photometrically quantitated with the chromogenic substrate α-PNPG ([Gotsche and Dahl, 1995]). The plasmids resulting for the construction of the treA transcriptional reporter gene fusions were named pSTH33 (opuAR^+/opuAAB.i-treA) and pSTH34 (opuAR^-/opuAAB.i-treA) (Supplementary Table S3). All treA reporter gene fusions were stably integrated as a single copy into the chromosome of various B. subtilis strains at the amyE gene; all of these strains carry a gene disruption mutation of the native chromosomal treA gene of B. subtilis to allow the assignment of the measured TreA enzyme activity to the reporter gene constructs (Supplementary Table S1).
# Aliquots (1.5 ml) from cultures of B. subtilis strains carrying chromosomal opuAAB.i′-treA reporter operon gene fusions (Supplementary Table S1) were used to monitor the expression levels by assaying the TreA reporter enzyme activity as described previously using the chromogenic substrate α-PNPG ([Gotsche and Dahl, 1995]). The TreA-specific activity is expressed in units per milligram of protein. Protein concentrations were estimated from the optical density of the cell culture harboring the treA reporter operon gene fusion ([Miller, 1972]).
# FIGURE 6 Influence of the B. subtilis GbsR-like regulators on the expression of opuA from B. infantis and its transcriptional response to the presence of compatible solutes. (A) Genetic structure of the opuAA-treA transcriptional reporter fusions. (B) The opuAA-treA reporter gene fusions, either including or lacking the B. infantis opuAR gene, were integrated into the chromosome of the B. subtilis strain STHB05; it carries gene disruption mutations of all three GbsR-like regulators, resulting in strains STHB10 (OpuAR^+) and STHB11 (OpuAR^-). […] The opuAA-treA reporter strains were grown in SMM to early exponential growth phase (OD578 1–1.5) and then assayed for TreA reporter enzyme activity. The shown data represent four independent biological replicates and each culture was assayed twice. (C) Strain STHB10 (opuAR^+/opuAA-treA) was grown in SMM with increasing NaCl concentrations until each of these cultures reached mid-exponential growth phase (OD578 of about 1.5) and were then harvested for TreA reporter enzyme activity assays. The given data are the means and standard deviations of four independent biological replicates and each culture was assayed twice. (D) Expression of the opuAA-treA reporter gene construct in response to extracellular provided compatible solutes. The opuAA-treA reporter fusion strains STHB10 (OpuAR^+) and STHB11 (OpuAR^-) were cultivated in SMM containing 1.2 M NaCl either in the absence or presence of 1 mM of the indicated compatible solutes. The opuAA-treA reporter fusion strains were grown to early exponential growth phase (OD578 1–1.5) and then assayed for TreA reporter enzyme activity. The given data are the means and standard deviations of four independent biological replicates and each culture was assayed twice.
# To identify possible effector molecules for the B. infantis OpuAR protein, we conducted a series of in vivo experiments in which we assessed any possible inducing effects of compatible solutes on opuAA-treA transcriptional activity in an OpuAR-dependent fashion (Figure 6D).
row,Structure (SMILES),Induction of opuAA-treA reporter activity (OpuAR-dependent)
1,"CN(C)CC(=O)O [DMG, dimethlyglycine]",did not serve as inducers
2,"C[S+](C)CCC(=O)[O-] [DMSP, dimethylsulfoniopropionate]",did not serve as inducers
3,C[N+](C)(C)CCO [choline],served as inducers; also recorded: induced
4,C[N+](C)(C)CC(=O)[O-] [glycine betaine],served as inducers; also recorded: induced
5,C[N+](C)(C)CCC(=O)[O-] [homobetaine],did not serve as inducers
6,C[N+]1(C)CCC[C@H]1C(=O)[O-] [proline betaine],served as inducers; also recorded: induced
